Data from patent US20080228069A1, “Novel Differential Imaging Method” (MEDIPHYSICS, INC., priority 2003, published 2008).

Assays:
[1] = tested on: SK—N—SH human neuroblastoma cells; conditions: over activity range; cited from earlier work
[2] = cited from earlier work
[3] = tested on: myocardial uptake of ^123I mIBG; assay: ^123I mIBG imaging with and without amitryptaline; assay type: in vivo, human
Experimental: 4 patients with movement disorders and aged between 66 and 75 were selected for this study. Neurological examination raised the differential diagnosis between essential tremor and Parkinson's disease. Prior to the study, none of the patients was taking any medication known to interfere with mIBG uptake. In all patients two ^123I mIBG scans were performed, one of which was performed after administration of a single oral dose of 25 mg amitryptaline one hour prior to ^123I mIBG administration. The imaging protocol was carried out for both scans as described in the following paragraphs.
The patients were treated with 200-500 mg of potassium perchlorate 30 minutes before injection of ^123I mIBG. […]
Anterior planar images of the thorax were obtained at 15 minutes and at 4 hours after ^123I mIBG injection with the subject in a supine position. The gamma camera (GE Millenium) was equipped with a low-energy, parallel-hole, general purpose collimator, and a 20% energy window on 159 KeV if ^123I is used.
SPECT was performed with collection of 32 projections of 30-60 seconds each, acquired over 180° orbit, with 3°-6° angle interval in a 64×64 matrix starting in the 45° right anterior oblique projection and finishing in the 45° left posterior oblique projection.
Studies were reconstructed using a Butterworth filtered backprojection technique. Three tomographic images were obtained from the SPECT study, i.e. vertical long axis slices, short axis slices, and horizontal long axis slices. Bull's eye polar map was generated from the apical to the basal short axis slices to show relative tracer distribution in the myocardium. Reconstruction was performed without attenuation and scatter correction.
The parameters used for quantification of myocardial ^123I-mIBG activity were heart to mediastinum ratio (HMR) and myocardial washout rate (WR). […] The WR is calculated by dividing the product of […] by myocardial counts at 15 minutes and multiplying by 100. […]

Compound | percent binding to SK—N—SH human neuroblastoma cells [1] | uptake in mouse heart and adrenals [2] | myocardial uptake of ^123I mIBG when amitryptaline was administered before ^123I mIBG ([3]; FIG. 3, two of the four subjects, single oral dose of 25 mg amitryptaline one hour prior to ^123I mIBG) | difference in the myocardial uptake of ^123I mIBG following administration of amitryptaline ([3]; FIG. 4, the other two subjects, single oral dose of 25 mg amitryptaline one hour prior to ^123I mIBG) | uptake of ^123I mIBG in the stress image ([3]; half of the patients imaged (4 patients), adrenergic interfering agent amitryptaline)
NC(N)=NCc1ccc(F)c(I)c1 [^18F-FIBG] | remained constant over a 3-log activity range | Specific and high uptake |  |  | 
CN(C)CCC=C1c2ccccc2CCc2ccccc21 [amitryptaline] |  |  | marked decrease | no notable difference | Reduced uptake
